Reference: paper PMC6821655, “Marine Archaeon Methanosarcina acetivorans Enhances Polyphosphate Metabolism Under Persistent Cadmium Stress” (Frontiers in Microbiology, 2019)

Biological target: T1, Ma-PPK (Methanosarcina acetivorans, UniProt Q8TUI6)
T1 construct: recombinant full-length, heterologously overexpressed and purified; gene product 2187 bp (about 728 residues), 81 kDa; tag and host only in supplement
Assay: polyphosphate synthesis, toluidine blue absorbance at […] nm
Assay type: biochemical
Details: variable Mg-ATP; trimethylsilyl polyP; 37 °C; Km given as unchanged with or without 120 mM K+; read-out: KmATP

T1 sequence (Q8TUI6 entry or part of it): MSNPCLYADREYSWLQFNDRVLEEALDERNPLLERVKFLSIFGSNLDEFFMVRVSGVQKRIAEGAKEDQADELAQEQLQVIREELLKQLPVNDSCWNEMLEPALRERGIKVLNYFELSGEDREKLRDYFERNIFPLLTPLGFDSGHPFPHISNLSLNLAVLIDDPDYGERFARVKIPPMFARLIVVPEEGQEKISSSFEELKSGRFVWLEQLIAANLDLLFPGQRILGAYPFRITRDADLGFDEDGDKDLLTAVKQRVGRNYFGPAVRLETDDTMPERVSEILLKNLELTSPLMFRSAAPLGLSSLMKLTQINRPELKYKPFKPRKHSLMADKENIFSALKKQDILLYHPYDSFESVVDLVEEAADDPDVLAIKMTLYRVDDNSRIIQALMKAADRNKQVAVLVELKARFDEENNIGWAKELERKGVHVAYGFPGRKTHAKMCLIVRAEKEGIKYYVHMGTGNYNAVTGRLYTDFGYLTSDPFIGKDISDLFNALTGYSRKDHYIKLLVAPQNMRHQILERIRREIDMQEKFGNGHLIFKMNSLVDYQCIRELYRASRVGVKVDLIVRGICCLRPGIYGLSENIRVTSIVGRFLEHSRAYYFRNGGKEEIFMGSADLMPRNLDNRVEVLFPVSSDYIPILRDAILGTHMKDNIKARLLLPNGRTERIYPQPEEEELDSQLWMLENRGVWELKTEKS

Km: 1400 µM
Structure (SMILES): Nc1ncnc2c1ncn2[C@@H]1O[C@H](COP(=O)(O)OP(=O)(O)OP(=O)(O)O)[C@@H](O)[C@H]1O [ATP]
